Paper PMC8228121, “Super-Cationic Peptide Dendrimers—Synthesis and Evaluation as Antimicrobial Agents” (Antibiotics, 2021)
Values after ≈ are worked out from the molar mass of the structure shown. Like-named read-outs stand apart in the source and are kept apart here. Bridge positions count the residues as written; N and C are the ends. Square brackets hold non-standard residues; d marks the D form. Side chains are listed from the residue outwards. Peptide text beside a SMILES is read from it. I, II: the chains in the order shown. Orn = NCCC[C@H](N)C(=O)O

Tests used:
[1] = test system: S. aureus ATCC 29213; test: microbe, parasite or virus in culture; format: cell-based, Staphylococcus aureus
Experimental: (§1) Clinical isolates of CRE, MRSA and VRE were obtained from Lancet Laboratories, Durban, South Africa, with approval BE394/15 from the Biomedical Research Ethical Committee of the University of KwaZulu-Natal. Five reference strains of bacteria, namely Escherichia coli ATCC 25922, Pseudomonas aeruginosa ATCC 27853, Enterococcus faecium ATCC 35667, Staphylococcus aureus ATCC 29213 and Bacillus subtilis ATCC 6051 were supplied by the American Type Culture Collection (ATCC).
(§2) MIC values were determined by the broth microdilution method and the significance of the values obtained was interpreted following the guidelines of the Clinical and Laboratory Standards for Antimicrobial Susceptibility Testing.. The effect of human serum on the antimicrobial effect of the molecules tested was determined in a similar way to the MIC method used above in a solution of 50% human serum plus Mueller–Hinton broth.

[2] = test system: B. subtilis ATCC 6051; test: microbe, parasite or virus in culture; format: cell-based, Bacillus subtilis
Experimental: as §1, §2

[3] = test system: E. faecium ATCC 35667; test: microbe, parasite or virus in culture; format: cell-based, Enterococcus faecium
Experimental: as §1, §2

[4] = test system: E. coli ATCC 25822; test: microbe, parasite or virus in culture; format: cell-based, Escherichia coli
Experimental: as §1, §2

[5] = test system: P. aeruginosa ATCC 27853; test: microbe, parasite or virus in culture; format: cell-based, Pseudomonas aeruginosa
Experimental: as §1, §2

[6] = test system: MRSA (methicillin-resistant S. aureus) isolates; test: microbe, parasite or virus in culture; format: cell-based; details: methicillin-resistant ) isolates
Experimental: as §1, §2

[7] = MTT cytotoxicity assay; format: cell-based, human; details: human, HepG2 cells, HepG2, 24 h exposure
Experimental: (§4) Cell viability was evaluated using the colorimetric MTT assay [21]. Human hepatocarcinoma (HepG2) cells and human embryonic kidney 293 (HEK-293) cells used in the drug toxicity assays were obtained from Cellonex (Johannesburg, South Africa). Viable HepG2 and HEK293 cells (20,000 cells/well) were seeded into a 96-well microtiter plate (200 µL) and allowed to attach overnight. The cells were exposed to varying concentrations of the peptides for 24 h. After removal of the treatment medium, 20 µL of MTT salt solution (5 mg/mL in 0.1M phosphate buffer saline (PBS)) and 100 µL of complete cell culture medium (CCM) were added to each well. After a 4 h (37 °C) incubation, the MTT salt solution was discarded and 100 μL of dimethyl sulphoxide (DMSO) were added to each well (1 h, 37 °C). The optical density of the solubilized formazan product was measured at 570 nm (reference λ of 690 nm) using a Bio-tek μQuant spectrophotometer (Winooski, VT, USA). […] GraphPad Prism (V5) (La Jolla, CA, USA) was used to obtain the half maximum inhibitory concentration (IC50) for each compound.

[8] = test system: P. aeruginosa; test: Time–kill curves; format: cell-based
Experimental: Killing curve assays were performed with a starting inoculum of 6 × 10^6 CFU/mL. […] Antimicrobials were added to 5 mL of bacteria in the exponential phase of growth and incubated at 37 °C with shaking. Samples were obtained aseptically at 0, 1, 2, 4, 6 and 24 h, diluted in Ringer 1/4 and plated on TSA for colony counting. The response of microbial strains to a single antimicrobial was determined by lowering logarithms of viable bacteria. In accordance with Lora-Tamayo et al., an antimicrobial was considered active when a reduction of ≥1 log10 relative to the initial inoculum was observed.

[9] = test system: E. coli; test: Effect on bacterial growth curves; format: cell-based; details: irrespective of concentration (MIC, ½ MIC and ¼ MIC)
Experimental: (§3) The study of the growth dynamic of the S. aureus, E. coli and P.aeruginosa strains against CAMPDs were assayed with a starting inoculum of 10^6–10^8 CFU/mL in a 10 mL specific falcon tube. The experiment was performed by a real-time reverse-spin bioreactor RTS-1 (Biosan SIA, Riga, Latvia) that applies non-invasive, mechanically driven rotation; thus, the cell suspension is mixed efficiently, mixing and oxygening the culture at 37 °C. Cell growth kinetics were recorded non-invasively in real time from data obtained from a near-infrared optical system, every 15 min.

[10] = test system: P. aeruginosa; test: Effect on bacterial growth curves; format: cell-based
Experimental: as §3

[11] = test system: S. aureus; test: Effect on bacterial growth curves; format: cell-based; details: at MIC, ½ MIC and ¼ MIC
Experimental: as §3

[12] = in vitro; details: human
Experimental: as §4

[13] = test system: CRE, E. coli isolates; test: microbe, parasite or virus in culture; format: cell-based; details: Escherichia coli
Experimental: as §1, §2

Row | Compound | MBC ([1]; ATCC 29213) [µg/mL] | MIC ([1]; ATCC 29213) [µg/mL] | MBC ([2]; ATCC 6051) [µg/mL] | MIC ([2]; ATCC 6051) [µg/mL] | MBC ([3]; ATCC 35667) [µg/mL] | MIC ([3]; ATCC 35667) [µg/mL] | MBC ([4]; ATCC 25822) [µg/mL] | MIC ([4]; ATCC 25822) [µg/mL] | MBC ([5]; ATCC 27853) [µg/mL] | MIC ([5]; ATCC 27853) [µg/mL] | IC50 at 24 h [7] [µg/mL] | time–kill: effect on bacterial population ([8]; at MIC) | time–kill: effect on bacterial population ([8]; at ¼ MIC) | time–kill: effect on bacterial population ([8]; at ½ MIC) | IC50 at 24 h [12] [µg/mL] | also measured
1 | CC(C)C[C@H](NC(=O)[C@H](CC(C)C)NC(=O)[C@H](CCCN)NC(=O)[C@H](CC(C)C)NC(=O)[C@H](CC(C)C)NC(=O)[C@H](CCCCNC(=O)[C@H](CCCN)NC(=O)[C@H](CC(C)C)NC(=O)[C@H](CCCN)NC(=O)[C@H](CCCCNC(=O)[C@H](CCCN)NC(=O)[C@H](CC(C)C)NC(=O)[C@@H](N)CCCN)NC(=O)[C@H](CCCN)NC(=O)[C@H](CC(C)C)NC(=O)[C@@H](N)CCCN)NC(=O)[C@H](CCCN)NC(=O)[C@H](CC(C)C)NC(=O)[C@H](CCCN)NC(=O)[C@H](CCCCNC(=O)[C@H](CCCN)NC(=O)[C@H](CC(C)C)NC(=O)[C@@H](N)CCCN)NC(=O)[C@H](CCCN)NC(=O)[C@H](CC(C)C)NC(=O)[C@@H](N)CCCN)C(N)=O [G2OLO-L2OL2, (OLO)4(KOLO)2KLLOLL-NH2] (I: H-[Orn]L[Orn]K([Orn-Leu-Orn])[Orn]L[Orn]KLL[Orn]LL-NH2 / II: H-[Orn]L[Orn]K([Orn-Leu-Orn])[Orn]L[Orn]; amide I:8-II:C) | 32 (≈ 10.6 µM) | 32 (≈ 10.6 µM) | 32 (≈ 10.6 µM) | 32 (≈ 10.6 µM) | 8 (≈ 2.65 µM) | 8 (≈ 2.65 µM) | 32 (≈ 10.6 µM) | 32 (≈ 10.6 µM) | 32 (≈ 10.6 µM) | 32 (≈ 10.6 µM) | 141 (≈ 46.8 µM) | killed all bacteria within the first hour of exposure and regrowth was observed after the second hour | the bacterial population was not totally eliminated | the bacterial population was not totally eliminated | 199 (≈ 65.9 µM) | MIC [6]: 64 µg/mL (≈ 21.2 µM); effect on growth curve [9]: abolished bacterial growth; effect on growth curve ([10]; at the MIC): abolished growth; delay in growth ([10]; at ¼ MIC): ~2 h; delay in growth ([10]; at ½ MIC): 10 h; effect on growth curve [11]: negligible
2 | CC(C)C[C@H](NC(=O)[C@H](CC(C)C)NC(=O)[C@H](CCCNC(=N)N)NC(=O)[C@H](CC(C)C)NC(=O)[C@H](CC(C)C)NC(=O)[C@H](CCCCNC(=O)[C@H](CCCNC(=N)N)NC(=O)[C@H](CC(C)C)NC(=O)[C@H](CCCNC(=N)N)NC(=O)[C@H](CCCCNC(=O)[C@H](CCCNC(=N)N)NC(=O)[C@H](CC(C)C)NC(=O)[C@@H](N)CCCNC(=N)N)NC(=O)[C@H](CCCNC(=N)N)NC(=O)[C@H](CC(C)C)NC(=O)[C@@H](N)CCCNC(=N)N)NC(=O)[C@H](CCCNC(=N)N)NC(=O)[C@H](CC(C)C)NC(=O)[C@H](CCCNC(=N)N)NC(=O)[C@H](CCCCNC(=O)[C@H](CCCNC(=N)N)NC(=O)[C@H](CC(C)C)NC(=O)[C@@H](N)CCCNC(=N)N)NC(=O)[C@H](CCCNC(=N)N)NC(=O)[C@H](CC(C)C)NC(=O)[C@@H](N)CCCNC(=N)N)C(N)=O [G2RLR-L2RL2, (RLR)4(KRLR)2KLLRLL-NH2] (I: H-RLRK([Arg-Leu-Arg])RLRKLLRLL-NH2 / II: H-RLRK([Arg-Leu-Arg])RLR; amide I:8-II:C) | 32 (≈ 8.98 µM) | 32 (≈ 8.98 µM) | 16 (≈ 4.49 µM) | 16 (≈ 4.49 µM) | 16 (≈ 4.49 µM) | 16 (≈ 4.49 µM) | 64 (≈ 18 µM) | 64 (≈ 18 µM) | 64 (≈ 18 µM) | 64 (≈ 18 µM) | 102 (≈ 28.7 µM) | reduced the bacterial population to almost zero and no regrowth was appreciated after 24 h | the bacterial population remained partially inhibited at the beginning of the exposure | reduced the bacterial population to almost zero and no regrowth was appreciated after 24 h | 67.4 (≈ 18.9 µM) | –
3 | C[C@@H](O)[C@H]1C(=O)N2C(C(=O)O)=C(S[C@@H]3CN[C@H](C(=O)N(C)C)C3)[C@H](C)[C@H]12 [Meropenem, reference compound] | – | – | – | – | – | – | – | – | – | – | – | – | – | – | – | MIC ([1]; Staphylococcus aureus, ATCC29213, S. aureus ATCC 29213, read-out: MIC): 0.25 µg/mL (≈ 0.652 µM); MIC ([2]; Bacillus subtilis, ATCC6051, B. subtilis ATCC 6051, read-out: MIC): 0.062 µg/mL (≈ 0.162 µM); MIC ([3]; Enterococcus faecium, ATCC35667, E. faecium ATCC 35667, read-out: MIC): < 0.25 µg/mL; MIC ([4]; Escherichia coli, ATCC25822): 0.125 µg/mL (≈ 0.326 µM); MIC ([5]; Pseudomonas aeruginosa, ATCC27853, P. aeruginosa ATCC 27853, read-out: MIC): 1 µg/mL (≈ 2.61 µM); MIC ([13]; CRE E. coli isolate IMP JAP): 8 µg/mL (≈ 20.9 µM); MIC ([13]; CRE E. coli isolate KPC L2l): 16 µg/mL (≈ 41.7 µM); MIC ([13]; CRE E. coli isolate NDM4-FEK): > 32 µg/mL; MIC ([13]; CRE E. coli isolate OXA-48 501): 2 µg/mL (≈ 5.22 µM); MIC ([13]; CRE E. coli isolate VIM-1 BM-12): > 32 µg/mL
